Experimental data taken from US11932608B1, “4-((2-(2-(2-(4-hydroxyphenyl)-4,5-diphenyl-1H-imidazol-1-yl)acetyl)hydrazono)methyl)benzoic acid as an anticancer compound” (KING FAISAL UNIVERSITY, priority 2023, dated 2024).

Columns and labels:
LOX IMVI = test: Percentage growth inhibition of in vitro subpanel tumor cell lines; assay type: cell-based; settings: Homo sapiens, 0.01 mM, Melanoma, read-out: Percentage growth inhibition (GI %)
Description: (§1) The anticancer activity of 4-((2-(2-(2-(4-hydroxyphenyl)-4,5-diphenyl-1H-imidazol-1-yl)acetyl)hydrazono)methyl)benzoic acid was assessed against leukemia, non-small cell lung cancer, colon cancer, central nervous system (CNS) cancer, melanoma, ovarian cancer, renal cancer, prostate cancer, and breast cancer.
(§2) Percentage growth inhibition (GI %) of in vitro subpanel tumor cell lines at 0.01 mM concentration for compound 4-((2-(2-(2-(4-hydroxyphenyl)-4,5-diphenyl-1H-imidazol-1-yl)acetyl)hydrazono)methyl)benzoic acid (Labeled as AE21 in the table) can be seen in Table 1 below.

NCI-H23 = test: as above; assay type: cell-based; settings: Homo sapiens; 0.01 mM; NCI-H23, Non-Small Cell Lung Cancer; read-out: Percentage growth inhibition (GI %)
Description: as §1, §2

DU-145 = test: as above; assay type: cell-based; settings: Homo sapiens; 0.01 mM; DU-145, Prostate Cancer; read-out: Percentage growth inhibition (GI %)
Description: as §1, §2

SF-268 = test: as above; assay type: cell-based; settings: Homo sapiens; 0.01 mM; SF-268, CNS Cancer; read-out: Percentage growth inhibition (GI %)
Description: as §1, §2

HS 578T = test: as above; assay type: cell-based; settings: Homo sapiens, 0.01 mM, Breast Cancer, read-out: Percentage growth inhibition (GI %)
Description: as §1, §2

OVCAR-4 = test: as above; assay type: cell-based; settings: Homo sapiens; 0.01 mM; OVCAR-4, Ovarian Cancer; read-out: Percentage growth inhibition (GI %)
Description: as §1, §2

T-47D = test: as above; assay type: cell-based; settings: Homo sapiens, T47D, 0.01 mM, Breast Cancer, read-out: Percentage growth inhibition (GI %)
Description: as §1, §2

MDA-MB-231/ATCC = test: as above; assay type: cell-based; settings: Homo sapiens, 0.01 mM, Breast Cancer, read-out: Percentage growth inhibition (GI %)
Description: as §1, §2

SF-295 = test: as above; assay type: cell-based; settings: Homo sapiens; 0.01 mM; SF-295, CNS Cancer; read-out: Percentage growth inhibition (GI %)
Description: as §1, §2

ACHN = test: as above; assay type: cell-based; settings: Homo sapiens, 0.01 mM, Renal Cancer, read-out: Percentage growth inhibition (GI %)
Description: as §1, §2

HCT-116 = test: as above; assay type: cell-based; settings: Homo sapiens; 0.01 mM; HCT-116, Colon Cancer; read-out: Percentage growth inhibition (GI %)
Description: as §1, §2

HL-60(TB) = test: as above; assay type: cell-based; settings: Homo sapiens, 0.01 mM, Leukemia, read-out: Percentage growth inhibition (GI %)
Description: as §1, §2

MOLT-4 = test: as above; assay type: cell-based; settings: Homo sapiens; 0.01 mM; MOLT-4, Leukemia; read-out: Percentage growth inhibition (GI %)
Description: as §1, §2

IGROV1 = test: as above; assay type: cell-based; settings: Homo sapiens, IGROV-1; 0.01 mM; IGROV1, Ovarian Cancer; read-out: Percentage growth inhibition (GI %)
Description: as §1, §2

U251 = test: as above; assay type: cell-based; settings: Homo sapiens, U-251; 0.01 mM; U251, CNS Cancer; read-out: Percentage growth inhibition (GI %)
Description: as §1, §2

NCI-H522 = test: as above; assay type: cell-based; settings: Homo sapiens; 0.01 mM; NCI-H522, Non-Small Cell Lung Cancer; read-out: Percentage growth inhibition (GI %)
Description: as §1, §2

RPMI-8226 = test: as above; assay type: cell-based; settings: Homo sapiens; 0.01 mM; RPMI-8226, Leukemia; read-out: Percentage growth inhibition (GI %)
Description: as §1, §2

UACC-257 = test: as above; assay type: cell-based; settings: Homo sapiens; 0.01 mM; UACC-257, Melanoma; read-out: Percentage growth inhibition (GI %)
Description: as §1, §2

UO-31 = test: as above; assay type: cell-based; settings: Homo sapiens; 0.01 mM; UO-31, Renal Cancer; read-out: Percentage growth inhibition (GI %)
Description: as §1, §2

M14 = test: as above; assay type: cell-based; settings: Homo sapiens; 0.01 mM; M14, Melanoma; read-out: Percentage growth inhibition (GI %)
Description: as §1, §2

SN12C = test: as above; assay type: cell-based; settings: Homo sapiens, 0.01 mM, Renal Cancer, read-out: Percentage growth inhibition (GI %)
Description: as §1, §2

BT-549 = test: as above; assay type: cell-based; settings: Homo sapiens; 0.01 mM; BT-549, Breast Cancer; read-out: Percentage growth inhibition (GI %)
Description: as §1, §2

SW-620 = test: as above; assay type: cell-based; settings: Homo sapiens; 0.01 mM; SW-620, Colon Cancer; read-out: Percentage growth inhibition (GI %)
Description: as §1, §2

SK-MEL-5 = test: as above; assay type: cell-based; settings: Homo sapiens; 0.01 mM; SK-MEL-5, Melanoma; read-out: Percentage growth inhibition (GI %)
Description: as §1, §2

MDA-MB-435 = test: as above; assay type: cell-based; settings: Homo sapiens; 0.01 mM; MDA-MB-435, Melanoma; read-out: Percentage growth inhibition (GI %)
Description: as §1, §2

MCF7 = test: as above; assay type: cell-based; settings: Homo sapiens; 0.01 mM; MCF7, Breast Cancer; read-out: Percentage growth inhibition (GI %)
Description: as §1, §2

HCC-2998 = test: as above; assay type: cell-based; settings: Homo sapiens; 0.01 mM; HCC-2998, Colon Cancer; read-out: Percentage growth inhibition (GI %)
Description: as §1, §2

EKVX = test: as above; assay type: cell-based; settings: Homo sapiens, 0.01 mM, Non-Small Cell Lung Cancer, read-out: Percentage growth inhibition (GI %)
Description: as §1, §2

NCI/ADR-RES = test: as above; assay type: cell-based; settings: Homo sapiens, 0.01 mM, Ovarian Cancer, read-out: Percentage growth inhibition (GI %)
Description: as §1, §2

SF-539 = test: as above; assay type: cell-based; settings: Homo sapiens; 0.01 mM; SF-539, CNS Cancer; read-out: Percentage growth inhibition (GI %)
Description: as §1, §2

A549/ATCC = test: as above; assay type: cell-based; settings: Homo sapiens, 0.01 mM, Non-Small Cell Lung Cancer, read-out: Percentage growth inhibition (GI %)
Description: as §1, §2

CCRF-CEM = test: as above; assay type: cell-based; settings: Homo sapiens, 0.01 mM, Leukemia, read-out: Percentage growth inhibition (GI %)
Description: as §1, §2

K-562 = test: as above; assay type: cell-based; settings: Homo sapiens, K562; 0.01 mM; K-562, Leukemia; read-out: Percentage growth inhibition (GI %)
Description: as §1, §2

CAKI-1 = test: as above; assay type: cell-based; settings: Homo sapiens; 0.01 mM; CAKI-1, Renal Cancer; read-out: Percentage growth inhibition (GI %)
Description: as §1, §2

NCI-H460 = test: as above; assay type: cell-based; settings: Homo sapiens; 0.01 mM; NCI-H460, Non-Small Cell Lung Cancer; read-out: Percentage growth inhibition (GI %)
Description: as §1, §2

SNB-75 = test: as above; assay type: cell-based; settings: Homo sapiens; 0.01 mM; SNB-75, CNS Cancer; read-out: Percentage growth inhibition (GI %)
Description: as §1, §2

HOP-62 = test: as above; assay type: cell-based; settings: Homo sapiens; 0.01 mM; HOP-62, Non-Small Cell Lung Cancer; read-out: Percentage growth inhibition (GI %)
Description: as §1, §2

HCT-15 = test: as above; assay type: cell-based; settings: Homo sapiens; 0.01 mM; HCT-15, Colon Cancer; read-out: Percentage growth inhibition (GI %)
Description: as §1, §2

NCI-H226 = test: as above; assay type: cell-based; settings: Homo sapiens; 0.01 mM; NCI-H226, Non-Small Cell Lung Cancer; read-out: Percentage growth inhibition (GI %)
Description: as §1, §2

PC-3 = test: as above; assay type: cell-based; settings: Homo sapiens; 0.01 mM; PC-3, Prostate Cancer; read-out: Percentage growth inhibition (GI %)
Description: as §1, §2

OVCAR-8 = test: as above; assay type: cell-based; settings: Homo sapiens; 0.01 mM; OVCAR-8, Ovarian Cancer; read-out: Percentage growth inhibition (GI %)
Description: as §1, §2

HT29 = test: as above; assay type: cell-based; settings: Homo sapiens, HT-29; 0.01 mM; HT29, Colon Cancer; read-out: Percentage growth inhibition (GI %)
Description: as §1, §2

OVCAR-5 = test: as above; assay type: cell-based; settings: Homo sapiens; 0.01 mM; OVCAR-5, Ovarian Cancer; read-out: Percentage growth inhibition (GI %)
Description: as §1, §2

KM12 = test: as above; assay type: cell-based; settings: Homo sapiens; 0.01 mM; KM12, Colon Cancer; read-out: Percentage growth inhibition (GI %)
Description: as §1, §2

With `O=C(Cn1c(-c2ccc(O)cc2)nc(-c2ccccc2)c1-c1ccccc1)N/N=C/c1ccc(C(=O)O)cc1` [AE21, 4-((2-(2-(2-(4-hydroxyphenyl)-4,5-diphenyl-1H-imidazol-1-yl)acetyl)hydrazono)methyl)benzoic acid] the melting point was 220 to 222 °C, the inhibition at 10 µM (LOX IMVI) was 33.4% and the inhibition at 10 µM (NCI-H23) was 4.14%. The inhibition at 10 µM (DU-145) was 43%, the inhibition at 10 µM (SF-268) was 11.7% and the inhibition at 10 µM (HS 578T) was 22.5%. It also gave an inhibition at 10 µM (OVCAR-4) of 15%, an inhibition at 10 µM (T-47D) of 22.7% and an inhibition at 10 µM (MDA-MB-231/ATCC) of 25.6%. It also gave an inhibition at 10 µM (SF-295) of 29.4%, an inhibition at 10 µM (ACHN) of 57.2% and an inhibition at 10 µM (HCT-116) of 50.7%. For the same molecule, the inhibition at 10 µM (HL-60(TB)) was 53.6%, the inhibition at 10 µM (MOLT-4) was 70.1% and the inhibition at 10 µM (IGROV1) was 4.51%. For the same molecule, the inhibition at 10 µM (U251) was 48.5%, the inhibition at 10 µM (NCI-H522) was 35.3% and the inhibition at 10 µM (RPMI-8226) was 21.4%. The inhibition at 10 µM (UACC-257) was 2.54%, the inhibition at 10 µM (UO-31) was 12.8% and the inhibition at 10 µM (M14) was 16.5%. For the same molecule, the inhibition at 10 µM (SN12C) was 47.8%, the inhibition at 10 µM (BT-549) was 11.9% and the inhibition at 10 µM (SW-620) was 67.6%. It also gave an inhibition at 10 µM (SK-MEL-5) of 8.04%, an inhibition at 10 µM (MDA-MB-435) of 16.6% and an inhibition at 10 µM (MCF7) of 81.1%. For the same molecule, the inhibition at 10 µM (HCC-2998) was 6.33%, the inhibition at 10 µM (EKVX) was 32.1% and the inhibition at 10 µM (NCI/ADR-RES) was 2.67%. The inhibition at 10 µM (SF-539) was 3.59%, the inhibition at 10 µM (A549/ATCC) was 64.9% and the inhibition at 10 µM (CCRF-CEM) was 78.4%. The inhibition at 10 µM (K-562) was 44.7%, the inhibition at 10 µM (CAKI-1) was 8.34% and the inhibition at 10 µM (NCI-H460) was 82.4%. It also gave an inhibition at 10 µM (SNB-75) of 13.8%, an inhibition at 10 µM (HOP-62) of 7.6% and an inhibition at 10 µM (HCT-15) of 51.7%. For the same molecule, the inhibition at 10 µM (NCI-H226) was 11.4%, the inhibition at 10 µM (PC-3) was 43.2% and the inhibition at 10 µM (OVCAR-8) was 49%. For the same molecule, the inhibition at 10 µM (HT29) was 55.4%, the inhibition at 10 µM (OVCAR-5) was 11.7% and the inhibition at 10 µM (KM12) was 16.2%.
